In the supplement of paper PMC12076712:
± gives the standard deviation of the averaged measurements.

Tests used:
Assay in all cases: pIC50, kinobeads binding competition
Conditions in all cases: cell material: Jurkat lysate
FER = FER (UniProt P16591)
ICK = molecular target: T1, ICK (UniProt Q9UPZ9)
T1 sequence (whole entry): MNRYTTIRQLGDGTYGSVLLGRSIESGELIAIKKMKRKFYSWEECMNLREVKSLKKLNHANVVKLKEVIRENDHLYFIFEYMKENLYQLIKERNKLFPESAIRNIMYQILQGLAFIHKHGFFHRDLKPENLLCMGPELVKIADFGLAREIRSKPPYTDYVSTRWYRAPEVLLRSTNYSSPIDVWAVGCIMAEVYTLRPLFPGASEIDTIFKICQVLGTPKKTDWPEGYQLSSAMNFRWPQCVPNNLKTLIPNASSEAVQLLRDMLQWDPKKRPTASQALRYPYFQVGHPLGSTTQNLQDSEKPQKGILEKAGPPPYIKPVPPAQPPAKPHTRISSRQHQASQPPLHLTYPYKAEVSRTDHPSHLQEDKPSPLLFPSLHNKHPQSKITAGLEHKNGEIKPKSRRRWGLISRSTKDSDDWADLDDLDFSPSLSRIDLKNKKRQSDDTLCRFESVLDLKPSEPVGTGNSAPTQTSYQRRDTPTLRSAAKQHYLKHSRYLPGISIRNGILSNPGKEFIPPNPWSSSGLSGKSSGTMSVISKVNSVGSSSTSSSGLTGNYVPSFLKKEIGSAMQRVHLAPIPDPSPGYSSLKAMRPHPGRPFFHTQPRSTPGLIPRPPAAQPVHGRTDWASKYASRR

CDK10 = CDK10 (UniProt Q15131)
UniProt Q14004 = molecular target: UniProt Q14004
MAST1 = MAST1 (UniProt Q9Y2H9)
PDIK1L = PDIK1L (UniProt Q8N165)
ITK = molecular target: T2, ITK (UniProt Q08881)
T2 sequence (whole entry): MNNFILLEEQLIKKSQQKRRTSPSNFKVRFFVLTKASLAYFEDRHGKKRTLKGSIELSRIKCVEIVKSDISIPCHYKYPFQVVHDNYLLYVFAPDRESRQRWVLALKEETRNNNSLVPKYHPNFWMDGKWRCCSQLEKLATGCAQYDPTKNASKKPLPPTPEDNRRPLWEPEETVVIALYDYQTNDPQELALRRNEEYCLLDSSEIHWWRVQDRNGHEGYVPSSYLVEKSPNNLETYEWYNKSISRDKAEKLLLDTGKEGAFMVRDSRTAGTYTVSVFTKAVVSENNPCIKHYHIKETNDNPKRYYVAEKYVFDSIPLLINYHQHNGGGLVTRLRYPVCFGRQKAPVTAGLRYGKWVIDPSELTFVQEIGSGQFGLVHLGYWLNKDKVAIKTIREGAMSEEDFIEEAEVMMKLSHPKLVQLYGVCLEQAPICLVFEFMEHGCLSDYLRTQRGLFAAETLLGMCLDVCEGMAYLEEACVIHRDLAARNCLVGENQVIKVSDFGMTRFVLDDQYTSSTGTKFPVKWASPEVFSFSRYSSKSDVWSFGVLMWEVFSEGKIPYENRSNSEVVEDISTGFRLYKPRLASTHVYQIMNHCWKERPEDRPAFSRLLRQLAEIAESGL

UniProt Q9NYL2 = molecular target: UniProt Q9NYL2
TAOK2 = molecular target: T3, TAOK2 (UniProt Q9UL54)
T3 sequence (whole entry): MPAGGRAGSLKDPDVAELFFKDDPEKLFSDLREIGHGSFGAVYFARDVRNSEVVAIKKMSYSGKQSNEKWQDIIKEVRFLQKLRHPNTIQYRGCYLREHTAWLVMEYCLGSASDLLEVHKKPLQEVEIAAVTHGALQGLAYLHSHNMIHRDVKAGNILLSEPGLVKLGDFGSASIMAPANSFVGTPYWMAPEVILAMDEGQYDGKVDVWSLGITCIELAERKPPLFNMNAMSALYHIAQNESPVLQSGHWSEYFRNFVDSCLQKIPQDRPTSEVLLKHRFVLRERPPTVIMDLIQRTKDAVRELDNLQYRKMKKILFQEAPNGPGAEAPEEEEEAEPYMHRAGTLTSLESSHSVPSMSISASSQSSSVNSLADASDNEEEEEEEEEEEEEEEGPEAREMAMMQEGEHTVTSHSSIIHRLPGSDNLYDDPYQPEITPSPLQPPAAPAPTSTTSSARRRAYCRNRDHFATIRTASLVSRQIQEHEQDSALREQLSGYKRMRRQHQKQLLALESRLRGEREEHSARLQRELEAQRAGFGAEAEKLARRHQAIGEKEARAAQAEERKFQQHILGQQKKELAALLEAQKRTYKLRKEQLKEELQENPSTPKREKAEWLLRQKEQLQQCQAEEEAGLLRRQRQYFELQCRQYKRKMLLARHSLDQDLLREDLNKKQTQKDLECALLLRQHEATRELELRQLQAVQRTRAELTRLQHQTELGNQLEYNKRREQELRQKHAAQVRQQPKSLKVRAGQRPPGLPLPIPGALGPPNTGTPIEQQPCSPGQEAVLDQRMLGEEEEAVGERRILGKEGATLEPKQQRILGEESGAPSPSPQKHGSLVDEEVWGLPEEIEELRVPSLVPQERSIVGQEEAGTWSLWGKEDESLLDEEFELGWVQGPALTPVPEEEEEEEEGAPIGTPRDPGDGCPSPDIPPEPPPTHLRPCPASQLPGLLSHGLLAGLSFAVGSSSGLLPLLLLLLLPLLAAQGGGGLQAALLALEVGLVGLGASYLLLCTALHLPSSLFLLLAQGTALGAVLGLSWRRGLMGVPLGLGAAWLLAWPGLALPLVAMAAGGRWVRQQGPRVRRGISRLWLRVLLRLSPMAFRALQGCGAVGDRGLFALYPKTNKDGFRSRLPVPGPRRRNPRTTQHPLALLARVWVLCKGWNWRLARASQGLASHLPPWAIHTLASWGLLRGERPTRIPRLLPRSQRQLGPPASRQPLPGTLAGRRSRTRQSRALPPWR

TESK1 = TESK1 (UniProt Q15569)
PLK1 = PLK1 (UniProt P53350)
UniProt Q15418 = molecular target: UniProt Q15418
MAP4K5 = MAP4K5 (UniProt Q9Y4K4)
UniProt Q15208 = molecular target: UniProt Q15208
Sequence of UniProt Q15208 (Q15208 whole entry, looked up): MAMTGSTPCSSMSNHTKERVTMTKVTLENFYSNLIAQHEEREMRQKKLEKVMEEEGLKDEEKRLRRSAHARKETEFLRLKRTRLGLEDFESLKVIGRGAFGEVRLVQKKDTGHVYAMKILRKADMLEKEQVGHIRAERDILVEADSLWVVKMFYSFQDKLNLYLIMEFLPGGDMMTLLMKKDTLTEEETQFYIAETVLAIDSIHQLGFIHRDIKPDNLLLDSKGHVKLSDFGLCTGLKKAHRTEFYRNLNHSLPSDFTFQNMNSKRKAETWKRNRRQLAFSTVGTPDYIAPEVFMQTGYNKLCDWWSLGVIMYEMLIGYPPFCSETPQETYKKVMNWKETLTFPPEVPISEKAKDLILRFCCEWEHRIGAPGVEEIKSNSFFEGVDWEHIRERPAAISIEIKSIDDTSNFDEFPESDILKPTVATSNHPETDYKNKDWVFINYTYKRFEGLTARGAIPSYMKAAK

Sequence of UniProt Q9NYL2 (Q9NYL2 whole entry, looked up): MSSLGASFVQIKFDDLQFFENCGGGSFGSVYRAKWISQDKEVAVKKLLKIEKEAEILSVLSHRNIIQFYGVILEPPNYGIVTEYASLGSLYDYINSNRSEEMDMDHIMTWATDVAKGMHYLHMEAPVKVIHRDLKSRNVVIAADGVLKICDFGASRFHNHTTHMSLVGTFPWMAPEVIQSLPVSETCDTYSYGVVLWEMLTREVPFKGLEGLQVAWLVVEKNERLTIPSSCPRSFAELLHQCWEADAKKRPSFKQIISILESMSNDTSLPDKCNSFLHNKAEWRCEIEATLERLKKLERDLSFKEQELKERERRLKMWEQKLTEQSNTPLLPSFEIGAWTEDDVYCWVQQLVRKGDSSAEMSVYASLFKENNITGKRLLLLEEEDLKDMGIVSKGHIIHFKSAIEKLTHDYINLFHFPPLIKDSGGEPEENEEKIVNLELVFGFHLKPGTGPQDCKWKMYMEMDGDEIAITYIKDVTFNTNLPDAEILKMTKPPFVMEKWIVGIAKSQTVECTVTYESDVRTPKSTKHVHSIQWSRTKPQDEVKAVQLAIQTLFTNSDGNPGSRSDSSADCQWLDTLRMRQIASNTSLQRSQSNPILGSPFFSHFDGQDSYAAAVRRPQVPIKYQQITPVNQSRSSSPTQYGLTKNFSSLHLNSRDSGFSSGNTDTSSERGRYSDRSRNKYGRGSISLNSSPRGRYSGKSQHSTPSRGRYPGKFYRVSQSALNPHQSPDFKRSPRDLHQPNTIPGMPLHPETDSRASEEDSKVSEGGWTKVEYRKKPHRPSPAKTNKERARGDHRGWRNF
Sequence of MAP4K5 (Q9Y4K4 whole entry, looked up): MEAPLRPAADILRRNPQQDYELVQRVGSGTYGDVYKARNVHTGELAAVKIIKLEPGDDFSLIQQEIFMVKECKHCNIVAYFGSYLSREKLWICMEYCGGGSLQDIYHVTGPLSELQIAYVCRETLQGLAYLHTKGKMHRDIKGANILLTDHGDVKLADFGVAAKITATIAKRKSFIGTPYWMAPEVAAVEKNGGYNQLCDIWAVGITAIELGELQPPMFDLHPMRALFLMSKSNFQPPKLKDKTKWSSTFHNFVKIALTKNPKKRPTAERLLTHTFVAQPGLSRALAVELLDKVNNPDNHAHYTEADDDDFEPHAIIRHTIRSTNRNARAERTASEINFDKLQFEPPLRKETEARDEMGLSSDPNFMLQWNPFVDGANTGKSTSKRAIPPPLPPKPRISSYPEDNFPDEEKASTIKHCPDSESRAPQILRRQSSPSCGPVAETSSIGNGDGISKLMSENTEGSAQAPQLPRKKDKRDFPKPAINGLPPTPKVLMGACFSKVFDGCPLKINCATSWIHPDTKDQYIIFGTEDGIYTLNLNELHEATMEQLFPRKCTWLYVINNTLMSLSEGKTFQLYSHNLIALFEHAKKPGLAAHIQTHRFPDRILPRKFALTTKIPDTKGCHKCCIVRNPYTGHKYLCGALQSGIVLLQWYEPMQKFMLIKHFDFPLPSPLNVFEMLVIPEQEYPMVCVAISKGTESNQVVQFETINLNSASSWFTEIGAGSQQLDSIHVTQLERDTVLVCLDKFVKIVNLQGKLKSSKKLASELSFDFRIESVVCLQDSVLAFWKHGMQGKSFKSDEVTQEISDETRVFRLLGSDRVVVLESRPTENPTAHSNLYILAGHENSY
Sequence of PDIK1L (Q8N165 whole entry): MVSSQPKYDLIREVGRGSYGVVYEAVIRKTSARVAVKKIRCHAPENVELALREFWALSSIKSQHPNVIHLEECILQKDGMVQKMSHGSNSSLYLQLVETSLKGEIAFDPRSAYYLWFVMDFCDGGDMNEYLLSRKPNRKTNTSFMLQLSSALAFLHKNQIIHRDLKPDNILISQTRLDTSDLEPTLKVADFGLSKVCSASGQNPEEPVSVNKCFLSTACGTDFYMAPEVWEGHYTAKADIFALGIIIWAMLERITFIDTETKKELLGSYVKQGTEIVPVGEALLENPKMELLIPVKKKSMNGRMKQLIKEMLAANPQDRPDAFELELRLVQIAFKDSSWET
Sequence of FER (P16591 whole entry, looked up): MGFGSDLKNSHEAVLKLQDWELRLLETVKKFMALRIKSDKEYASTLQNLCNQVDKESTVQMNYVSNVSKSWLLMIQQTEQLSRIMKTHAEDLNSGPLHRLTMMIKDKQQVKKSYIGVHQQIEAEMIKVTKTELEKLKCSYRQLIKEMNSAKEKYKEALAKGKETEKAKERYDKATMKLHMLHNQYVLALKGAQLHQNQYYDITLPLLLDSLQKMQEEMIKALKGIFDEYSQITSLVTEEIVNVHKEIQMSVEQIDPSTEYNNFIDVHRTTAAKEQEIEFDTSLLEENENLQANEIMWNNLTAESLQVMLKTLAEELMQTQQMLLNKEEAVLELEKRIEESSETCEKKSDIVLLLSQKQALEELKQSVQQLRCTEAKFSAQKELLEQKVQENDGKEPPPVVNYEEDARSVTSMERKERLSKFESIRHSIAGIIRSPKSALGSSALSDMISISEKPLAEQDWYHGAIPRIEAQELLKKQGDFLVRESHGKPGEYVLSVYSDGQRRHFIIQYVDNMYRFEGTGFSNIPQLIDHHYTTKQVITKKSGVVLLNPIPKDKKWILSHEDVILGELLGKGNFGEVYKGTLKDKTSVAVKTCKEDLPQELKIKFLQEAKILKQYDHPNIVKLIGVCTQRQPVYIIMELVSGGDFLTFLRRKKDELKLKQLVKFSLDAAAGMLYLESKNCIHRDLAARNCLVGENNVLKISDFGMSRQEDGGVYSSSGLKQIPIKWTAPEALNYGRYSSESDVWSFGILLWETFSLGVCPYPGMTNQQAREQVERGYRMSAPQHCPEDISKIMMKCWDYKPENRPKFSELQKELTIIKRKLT
Sequence of TESK1 (Q15569 whole entry, looked up): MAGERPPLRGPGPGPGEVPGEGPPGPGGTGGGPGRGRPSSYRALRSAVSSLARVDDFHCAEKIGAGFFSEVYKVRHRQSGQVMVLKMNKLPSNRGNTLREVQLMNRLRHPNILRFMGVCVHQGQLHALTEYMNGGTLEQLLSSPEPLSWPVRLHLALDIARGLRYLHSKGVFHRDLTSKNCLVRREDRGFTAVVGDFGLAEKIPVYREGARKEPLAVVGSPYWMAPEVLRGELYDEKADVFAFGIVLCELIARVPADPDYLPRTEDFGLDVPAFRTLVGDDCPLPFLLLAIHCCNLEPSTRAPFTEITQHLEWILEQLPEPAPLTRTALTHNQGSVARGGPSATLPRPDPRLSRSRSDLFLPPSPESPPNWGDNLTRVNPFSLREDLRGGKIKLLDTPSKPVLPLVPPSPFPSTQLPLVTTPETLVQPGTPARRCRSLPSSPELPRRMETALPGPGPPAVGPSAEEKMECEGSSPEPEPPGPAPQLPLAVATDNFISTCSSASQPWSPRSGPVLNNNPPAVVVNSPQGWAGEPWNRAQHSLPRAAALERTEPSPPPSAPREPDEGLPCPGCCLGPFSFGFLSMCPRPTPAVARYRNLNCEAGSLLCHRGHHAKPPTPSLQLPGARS
Sequence of PLK1 (P53350 whole entry): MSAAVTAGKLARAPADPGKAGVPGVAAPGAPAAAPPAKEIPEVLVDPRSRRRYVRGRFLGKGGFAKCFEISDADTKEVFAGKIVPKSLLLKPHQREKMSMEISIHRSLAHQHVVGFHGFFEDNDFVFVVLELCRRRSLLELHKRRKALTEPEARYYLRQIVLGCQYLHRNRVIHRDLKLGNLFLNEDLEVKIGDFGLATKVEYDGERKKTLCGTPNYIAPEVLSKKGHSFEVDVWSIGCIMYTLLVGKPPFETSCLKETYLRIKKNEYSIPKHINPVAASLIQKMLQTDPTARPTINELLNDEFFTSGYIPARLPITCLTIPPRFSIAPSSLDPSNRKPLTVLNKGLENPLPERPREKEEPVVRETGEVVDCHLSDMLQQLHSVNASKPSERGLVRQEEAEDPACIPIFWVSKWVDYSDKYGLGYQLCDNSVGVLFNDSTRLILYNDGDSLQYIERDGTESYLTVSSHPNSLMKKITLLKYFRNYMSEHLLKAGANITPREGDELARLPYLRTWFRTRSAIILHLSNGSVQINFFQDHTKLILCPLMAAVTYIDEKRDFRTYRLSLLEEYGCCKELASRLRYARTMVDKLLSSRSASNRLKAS
Sequence of CDK10 (Q15131 whole entry): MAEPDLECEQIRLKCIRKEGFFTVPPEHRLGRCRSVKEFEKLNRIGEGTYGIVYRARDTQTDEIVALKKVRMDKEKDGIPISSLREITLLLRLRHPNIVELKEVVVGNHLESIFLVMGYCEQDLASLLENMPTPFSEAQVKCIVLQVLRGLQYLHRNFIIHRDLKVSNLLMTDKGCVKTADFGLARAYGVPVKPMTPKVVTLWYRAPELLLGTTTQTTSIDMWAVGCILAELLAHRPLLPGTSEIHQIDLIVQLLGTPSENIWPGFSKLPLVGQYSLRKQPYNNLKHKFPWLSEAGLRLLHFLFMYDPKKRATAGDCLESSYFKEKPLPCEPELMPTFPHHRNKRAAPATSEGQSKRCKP

pIC50 (FER): < 4.52
pIC50 (ICK): 6.39
pIC50 (CDK10): 7.86 ± 0.31
pIC50 (UniProt Q14004): 7.42 ± 0.28
pIC50 (MAST1): < 4.52
pIC50 (PDIK1L): < 4.52
pIC50 (ITK): < 4.52
pIC50 (UniProt Q9NYL2): < 4.52
pIC50 (TAOK2): 5.6 ± 0.085
pIC50 (TESK1): < 4.52
pIC50 (PLK1): < 4.52
pIC50 (UniProt Q15418): < 4.52
pIC50 (MAP4K5): < 4.52
pIC50 (UniProt Q15208): < 4.52
Structure (SMILES): CCc1cnn2c(NCc3ccc[n+]([O-])c3)cc(N3CCCC[C@H]3CCO)nc12 [dinaciclib]
